One data set concerns gastric acid secretion. Briefly: gastric acid secretion-inhibiting effect, Shay's method (pylorus-ligated rats). Format: in vivo, rat (female H-Wistar). The conditions noted are these: Rattus norvegicus. On the procedure: According to this method female H-Wistar rats weighing 120 to 150 g were starved in latticed cages for 24 hours. The animals received water ad libitum. Then their pylorus was ligated under a slight ether anaesthesia. The test compounds were administered during the surgical intervention. After 4 hours the animals were killed by ether narcosis. After excision of the stomach the volume and pH value of the gastric content were measured. In several cases the hydrochloric acid content was determined by titration.

In the next data set the test system is rats. Conditions: rat, in vivo, po, 120 mg/kg.
The test system of data set [1] is gastric ulcers induced in rats by indomethacine. Briefly: inhibition of gastric ulcers induced by indomethacine in rats. Conditions: 50 mg/kg oral dose, ulcers induced by 40 mg/kg s.c. indomethacine. Format: in vivo, rat. On the procedure: An 50 mg/kg oral dose of 1-benzyl-2-(cyanoimino)pyridine inhibits the development of gastric ulcers induced in rats by 40 mg/kg subcutaneous (s.c.) dose of indomethacine (chemically [1-(4-chlorobenzoyl)-2-methyl-5-methoxyindol-3-yl]acetic acid) by 100%.

[2] abbreviates: Shay's method, female H-Wistar rats 120 to 150 g, starved 24 hours, pylorus ligated, 4 hours, given during the surgical intervention, read-out: ED50.

Read-outs that look alike come from different tables or passages of the source.

A word on the ED50: it is the dose that gives a 50% effect, or the effect in half of the subjects. For `N#CN=c1ccccn1Cc1ccccc1Cl` [1-(2-chlorobenzyl)-2-(cyanoimino)pyridine], the ED50 in the data set on gastric acid secretion (setting [2]) stood at 1.8 mg/kg.

As to `N#CN=c1ccccn1Cc1cccc(Cl)c1` [1-(3-chlorobenzyl)-2-(cyanoimino)pyridine], in the data set on gastric acid secretion (setting [2]), the 50% effective dose (ED50) came to 9.88 mg/kg.

Consider `N#CN=c1ccccn1Cc1ccccc1` [1-benzyl-2-(cyanoimino)pyridine], for which, in the data set with rats, the toxic symptom entry was “No toxic symptom”. Besides, the “inhibition of the development of gastric ulcers” value in data set [1] was 100%. Moreover, in the data set with gastric acid secretion (setting [2]), the ED50 was 3.26 mg/kg.

Consider `O=[N+]([O-])N=c1ccccn1Cc1ccccc1` [1-benzyl-2-(nitroiminopyridine, 1-benzyl-2-(nitroimino)pyridine], for which the ED50 in the data set with gastric acid secretion (setting [2]) came out at 13.6 mg/kg.

Turning to `N#CN=c1ccccn1Cc1ccccc1F` [2-(cyanoimino)-1-(2-fluorobenzyl)pyridine], in the data set on gastric acid secretion (setting [2]), the ED50 was determined as 4.3 mg/kg.

With `Cc1ccccc1Cn1ccccc1=NC#N` [2-(cyanoimino)-1-(2-methylbenzyl)pyridine], the ED50 in the data set on gastric acid secretion (setting [2]) was 11.7 mg/kg.

Take `N#CN=c1ccccn1Cc1cccc(C(F)(F)F)c1` [2-(cyanoimino)-1-(3-trifluoromethylbenzyl)pyridine]: the ED50 in the data set on gastric acid secretion (setting [2]) was found to be 12.2 mg/kg.

Turning to `N#CN=c1ccccn1Cc1ccc(F)cc1` [2-(cyanoimino)-1-(4-fluorobenzyl)pyridine], the ED50 in the data set on gastric acid secretion (setting [2]) came out at 8.36 mg/kg.

On to `CN=C(NC#N)NCCSCc1nc[nH]c1C` [cimetidine, 1-cyano-2-methyl-3-[2-[[(5-methylimidazol-4-yl)methyl]thio]ethyl]-guanidine, reference compound], for which the 50% effective dose (ED50) in the data set with gastric acid secretion (po, 4 h, read-out: oral ED50) is 50 mg/kg.

The record behind these values is US5155123A, “Pyridine derivatives and pharmaceutical compositions containing them” (Richter Gedeon Vegyeszeti Gyar R.T., priority 1989, dated 1992).
